The structures appear in SMILES notation. ≈ marks a conversion by molar mass, not a printed value.

Results on four compounds are retold here after ChEMBL document CHEMBL1150863, “New triterpenoid saponins from the sponge Erylus nobilis” (2001).

In the assay the test system is K562. Nature of the assay: Cytotoxicity against human K562 cells. To be noted: read-out: LC50 (the source's name). Type of assay: functional.

As to `C=C(CC[C@@H](C)[C@H]1CC[C@@]2(C(=O)O)C3=C(CC[C@]12C)[C@@]1(C)CCC(O[C@@H]2O[C@H](CO)[C@H](O)[C@H](O[C@@H]4OC[C@H](O)[C@H](O)[C@H]4O)[C@H]2O[C@@H]2O[C@H](CO)[C@@H](O)[C@H](O)[C@H]2NC(C)=O)C(C)(C)[C@@H]1CC3)C(C)C` (some centres undefined) [ERYLOSIDE G], the CC50 was 22.1 µg/mL (≈ 22.8 µM).

`C=C(CC[C@@H](C)[C@H]1CC[C@@]2(C(=O)O)C3=C(CC[C@]12C)[C@@]1(C)CCC(O[C@@H]2OC[C@H](O)[C@H](O[C@@H]4OC[C@H](O)[C@H](O)[C@H]4O)[C@H]2O[C@@H]2O[C@H](CO)[C@@H](O)[C@H](O)[C@H]2NC(C)=O)C(C)(C)[C@@H]1CC3)C(C)C` (some centres undefined) [ERYLOSIDE H]: the CC50 was found to be 24.8 µg/mL (≈ 26.4 µM).

Take `C=C(CC[C@@H](C)[C@H]1CC[C@@]2(C(=O)O)C3=C(CC[C@]12C)[C@@]1(C)CCC(O[C@@H]2O[C@H](CO)[C@H](O)[C@H](O[C@@H]4OC[C@H](O)[C@H](O)[C@H]4O)[C@H]2O[C@@H]2O[C@H](CO)[C@@H](O)[C@H](O)[C@H]2NC(C)=O)C(C)(C)[C@@H]1CC3)C(C)(C)C` (some centres undefined) [ERYLOSIDE I]: the CC50 was determined as 17.9 µg/mL (≈ 18.2 µM).

Take `C=C(CC[C@@H](C)[C@H]1CC[C@@]2(C(=O)O)C3=C(CC[C@]12C)[C@@]1(C)CCC(O[C@@H]2OC[C@H](O)[C@H](O[C@@H]4OC[C@H](O)[C@H](O)[C@H]4O)[C@H]2O[C@@H]2O[C@H](CO)[C@@H](O)[C@H](O)[C@H]2NC(C)=O)C(C)(C)[C@@H]1CC3)C(C)(C)C` (some centres undefined) [ERYLOSIDE J]: the CC50 worked out at 21.8 µg/mL (≈ 22.9 µM).
